# Data taken from the supplement of paper PMC13380429.
# ± gives the standard deviation of the averaged measurements.
# What was measured:
# Conditions in all cases: 72 h
# Calu-3 [1] = assay: relative viability EC50 (midpoint between 100% and the lowest measured viability); higher = less toxic
# Caco-2 [2] = assay: as above
# U2OS [3] = assay: as above
# HepG2 [4] = assay: as above
# Vero E6 [5] = assay: as above
# Calu-3 [6] = assay: drug sensitivity score (DSS) for viability; higher = more toxic; extreme values may be limits of the assay
# Caco-2 [7] = assay: as above
# U2OS [8] = assay: as above
# HepG2 [9] = assay: as above
# Vero E6 [10] = assay: as above
# Calu-3 [11] = assay: cell viability relative to DMSO; higher = less toxic
# Caco-2 [12] = assay: as above
# U2OS [13] = assay: as above
# HepG2 [14] = assay: as above
# Vero E6 [15] = assay: as above
SMILES,relative viability EC50 (Calu-3 [1]) [µM],relative viability EC50 (Caco-2 [2]) [µM],relative viability EC50 (U2OS [3]) [µM],relative viability EC50 (HepG2 [4]) [µM],relative viability EC50 (Vero E6 [5]) [µM],drug sensitivity score (Calu-3 [6]),drug sensitivity score (Caco-2 [7]),drug sensitivity score (U2OS [8]),drug sensitivity score (HepG2 [9]),drug sensitivity score (Vero E6 [10]),cell viability (Calu-3 [11]; 1 nM) [%],cell viability (Calu-3 [11]; 10 nM) [%],cell viability (Calu-3 [11]; 100 nM) [%],cell viability (Calu-3 [11]; 1000 nM) [%],cell viability (Calu-3 [11]; 10000 nM) [%],cell viability (Caco-2 [12]; 1 nM) [%],cell viability (Caco-2 [12]; 10 nM) [%],cell viability (Caco-2 [12]; 100 nM) [%],cell viability (Caco-2 [12]; 1000 nM) [%],cell viability (Caco-2 [12]; 10000 nM) [%],cell viability (U2OS [13]; 1 nM) [%],cell viability (U2OS [13]; 10 nM) [%],cell viability (U2OS [13]; 100 nM) [%],cell viability (U2OS [13]; 1000 nM) [%],cell viability (U2OS [13]; 10000 nM) [%],cell viability (HepG2 [14]; 1 nM) [%],cell viability (HepG2 [14]; 10 nM) [%],cell viability (HepG2 [14]; 100 nM) [%],cell viability (HepG2 [14]; 1000 nM) [%],cell viability (HepG2 [14]; 10000 nM) [%],cell viability (Vero E6 [15]; 1 nM) [%],cell viability (Vero E6 [15]; 10 nM) [%],cell viability (Vero E6 [15]; 100 nM) [%],cell viability (Vero E6 [15]; 1000 nM) [%],cell viability (Vero E6 [15]; 10000 nM) [%]
Nc1ccn([C@@H]2CS[C@H](CO)O2)c(=O)n1 [lamivudine],> 10,> 10,> 10,> 10,> 10,0,0.7,0,0,0,107,89.6,89.4,96.9,97.6,83,100,89.3,88.7,84.5,96.9,102,97.7,102,97.1,93.9,93.4,98.8,99.1,106,102,105,97.4,85.8,99.2
O=C1N(c2ccccc2)c2ccccc2C1(Cc1ccncc1)Cc1ccncc1 [linopirdine],> 10,> 10,> 10,> 10,> 10,0,0,0,0,0,92.4,98.5,98.9,103,97.2,91.4,93.2,88.3,98.8,93.1,94.6,101,98.7,103,98.7,111,102,94.9,105,102,106,97.3,106,96.9,99.2
Cc1nccc2[nH]c(=O)ccc12 [medorinone],> 10,> 10,> 10,> 10,> 10,0,0,0,0,0,113,102,91,98.8,96.3,104,102,102,93.9,97.8,97.9,100,97.4,99.7,97.8,112,99.5,102,96.8,109,102,101,97,97.1,98.5
CC(=O)[C@H]1CC[C@H]2[C@@H]3C[C@H](C)C4=CC(=O)CC[C@]4(C)[C@H]3[C@@H](O)C[C@]12C [medrysone],> 10,> 10,> 10,> 10,> 10,0,0,0,0,0,91.5,98.5,101,91.3,93.4,90.4,97.5,98.2,101,102,97.6,97.4,99.8,101,99.6,102,98.4,108,101,112,98,95,97.9,95.6,100
CN1c2c([nH]c(N)nc2=O)NC[C@@H]1CNc1ccc(C(=O)N[C@@H](CCC(=O)O)C(=O)O)cc1 [metafolin],> 10,> 10,> 10,> 10,> 10,0,0,0,0,0,91.1,106,105,96.5,96.9,95.4,90.3,85.3,98.1,102,94.9,100,92.5,105,101,102,89.8,105,110,108,96.1,91.6,96.3,83.2,104
CC[C@@H](CO)NC(=O)[C@@H]1C=C2c3cccc4c3c(cn4C)C[C@H]2N(C)C1 [methysergide],> 10,> 10,> 10,> 10,> 10,0,0,0,0,0,88.7,99.1,102,97,102,95.9,89.6,100,94.3,110,101,96.1,100,92.3,98.7,94.8,96.9,102,102,111,96,100,91.9,99.7,111
COCCc1ccc(OCC(O)CNC(C)C)cc1 (stereo not given) [metoprolol],> 10,> 10,> 10,> 10,> 10,0,0,0,0,0,93.1,106,93.2,101,98.7,102,136,91.8,110,94.4,103,109,99,108,104,112,79.4,122,79.7,93.6,97.7,97.1,96.1,93.6,96.2
O=c1c(O)c(-c2cc(O)c(O)c(O)c2)oc2cc(O)cc(O)c12 [myricetin],> 10,> 10,> 10,> 10,> 10,0,0,0,0,0,105,98.5,96,102,105,97.2,99.2,98.8,101,96,93.6,105,97.4,99.6,103,96.9,91.9,106,94.4,96.3,94.1,97.7,95.4,95.8,97.5
CCOc1ccc2ccccc2c1C(=O)N[C@@H]1C(=O)N2[C@@H]1SC(C)(C)[C@@H]2C(=O)O [nafcillin],> 10,> 10,> 10,> 10,> 10,0,0,0,0,0,91.1,107,101,99.5,102,99,96.4,99.9,101,105,98.2,99.6,94.5,100,106,99.5,91.5,96.8,92.4,99.5,103,90.3,94.2,104,95.7
Oc1ccc2c3c1O[C@H]1c4oc5ccccc5c4C[C@@]4(O)[C@@H](C2)N(CC2CC2)CC[C@]314 [naltriben],> 10,> 10,> 10,> 10,> 10,0,0.3,0,0,0,105,85.1,105,87.7,99.5,91.7,91.9,102,98.6,86.5,101,101,100,101,99.8,102,120,93.5,99.7,99,90.9,101,93.3,96.4,108
Oc1ccc2c3c1O[C@H]1c4[nH]c5ccccc5c4C[C@@]4(O)[C@@H](C2)N(CC2CC2)CC[C@]314 [naltrindole],> 10,> 10,> 10,> 10,> 10,0.3,0,0,0,0,98.5,98.5,103,101,83.9,102,94.6,98.1,96.5,106,98.7,100,102,111,97.9,103,97.7,101,106,91.7,95.9,102,105,95.4,92.1
CN1C(=O)N[C@H](Cc2c[nH]c3c(Cl)cccc23)C1=O [necrostatin-2],> 10,> 10,> 10,> 10,> 10,0,0,0,0,0,97.1,110,93.9,96.9,90.4,99,112,99.4,108,102,103,109,105,107,95.1,112,99.3,95.3,91.3,108,104,102,103,99.1,97.8
CC[C@H]1[C@@H](O)[C@@H]2[C@H](CC[C@]3(C)[C@@H]([C@H](C)CCC(=O)O)CC[C@@H]23)[C@@]2(C)CC[C@@H](O)C[C@@H]12 [obeticholic-acid],> 10,> 10,> 10,> 10,> 10,0,0.25 ± 0.35,0,0,0,106 ± 6.7,100 ± 2.4,105.9 ± 0.57,97.5 ± 6.6,98.2 ± 7.2,98.7 ± 5.8,104 ± 4.4,95 ± 8.5,94.8 ± 1.6,95.5 ± 1.6,102,104,96.1,104,99.2,100 ± 4.6,102 ± 17,95.5 ± 8.1,103 ± 3.2,104.8 ± 0.14,109 ± 20,94.8 ± 3.3,99.8 ± 12,97.3 ± 0.57,103 ± 7.1
C=CC(=O)Nc1cc(Nc2nccc(-c3cn(C)c4ccccc34)n2)c(OC)cc1N(C)CCN(C)C [osimertinib],0.374,1.44,1.86,1.8,1.19,15.8,8.8,8,8.1,10.4,92.6,92.9,72.2,36.7,0.7,82.7,97.2,94.2,72.6,9.1,95.7,99.2,92.3,83.6,5,99.6,98.8,104,82.4,6,95.9,93.8,90.4,57.7,0
